Read-outs that look alike come from different tables or passages of the source.
Key:
implantation = assay: inhibition of implantation in female rats; assay type: in vivo; settings: Rattus norvegicus, sc, read-out: ED50 Implantation
Source text: The effects are for an unexpectedly long period e.g. several hours.

[1] = test system: central dopamine receptor; assay: Ungerstedt test: turning in rats lesioned unilaterally with 6-hydroxy-dopamine (anti-parkinson); assay type: in vivo, rat
Protocol: In particular the compounds are useful as central dopamine receptor agents for the treatment of e.g. Morbus Parkinson as indicated in standard tests. For example in rates lesioned unilaterally in the nigro-neostratal dopamine pathway by the effect of a 6-hydroxy-dopamine injection in the substantia nigra the compounds at doses of between about 3 and about 30 mg/kg p.o., according to the method of U.Ungerstedt Acta.physiol.scand.Suppl.387, 69-93 (1971) and substantially the same as that described by J. M. Vigouret et al., Pharmacology 16 (Suppl.1) 156-193 (1978), induce turning in the direction of the non-denerved side over a long period of time, e.g. several hours.

[2] = tolerability in the beagle dog; assay type: in vivo; settings: p.o.

Row | SMILES | ED50 (implantation; female rats, s.c.) [mg/kg] | Ungerstedt test, No of rotations ([1]; 3 mg/kg p.o., over 7 hours) | anti-parkinson activity relative to prolactin secretion activity ([1]; comparison with prolactin secretion tests) | emetic effects [2] | ED50 (implantation) [mg/kg] | Ungerstedt test, No of rotations ([1]; at 0.1 mg/kg s.c.)
1 | CCN(CC)S(=O)(=O)N[C@H]1C[C@@H]2c3cccc4c3c(cn4CC)C[C@H]2N(C)C1 [Example 1, N,N-Diethyl-N'-[(8α)-1-ethyl-6-methyl-ergolin-8-yl]-sulfamide] | 0.23 | 774 | particularly patent anti-parkinson activity relative to prolactin secretion activity | few emetic effects |  | 
2 | CCN(CC)S(=O)(=O)N[C@H]1C[C@@H]2c3cccc4c3c(cn4C(C)C)C[C@H]2N(C)C1 [Example 2, N,N-Diethyl-N'-[(8α)-1-isopropyl-6-methylergolin-8-yl]sulfamide] | 0.08 | 1608 |  |  |  | 
3 | CC(C)C[C@H]1C(=O)N2CCC[C@H]2[C@]2(O)O[C@](NC(=O)[C@@H]3C=C4c5cccc6[nH]c(Br)c(c56)C[C@H]4N(C)C3)(C(C)C)C(=O)N12 [Bromocriptine, reference compound] |  |  |  |  | 0.75 | 80

Source: patent publication US4791116A, “N,N-diethyl-N'-[(8α)-1-ethyl-6-methyl-ergolin-8-yl]-sulfamide useful as prolactin secretion inhibitor, anti-parkinson agents and anti-depressant agents” (priority 1983, dated 1988)
